Values quoted from earlier work, collected in patent US20080200527A1, “Cannabinoid Receptor Modulators” (Carex SA, priority 2005, published 2008).

Test system: absorption of dietary fat
Details: in vivo

SMILES: CCCCCCCCCCC[C@@H](C[C@@H]1OC(=O)[C@H]1CCCCCC)OC(=O)[C@H](CC(C)C)NC=O [orlistat]
- block of the absorption of dietary fat: up to 30%
